Legend:
Assay type in all cases: in vivo
[1] = tested on: Priplaneta americana; assay: Test Example 12: mouse feed poison bait, mortality with time; settings: bait 1%
Experimental: 1 g of feeding stuff for mice was treated with 0.5 ml of an acetone solution containing 10 mg of a sample compound and put in a constant temperature chamber at 40° C. for 20 hours to sufficiently evaporate acetone, whereby a poison bait chemical containing 1% of the sample compound was prepared. Then, this poison bait chemical was put into a cup together with a wet cotton, and 10 […] (Priplaneta americana) were released and kept at 25° C. in a breeding room, whereby the mortality was examined as the time passed.

[2] = tested on: Reticulitermes speratus; assay: Test Example 10: coated Japanese red pine wood block, termite mortality and weight loss after 24 days; settings: wood block coated with 0.2% solution
Experimental: Mean weight loss (%) of the wood block=(W1−W2/W1)×100
A solution containing a sample compound in a predetermined concentration was coated by a paint brush in an amount of 110±10 mg on a rectangular parallelpiped wood block of Japanese red pine (20 mm×10 mm×10 mm). The treated wood block was naturally dried in a dark room of 25° C. for 14 days. Then, the treated wood block and a non-treated wood block were dried at a temperature of 60° C. for 72 hours, and their weights (W1) were measured, and they were used as test specimens. Such a test specimen was put into a cylindrical cup made of acrylic resin (i.e. a cup having a hole with a diameter of 10 mm formed in the bottom and having hard plaster (Dental Stone) set at the bottom in a thickness of 10 mm), and 150 termite workers and 10 termite soldiers (Reticulitermes speratus) were released thereon. The cup was placed in a container having wet cotton laid over the bottom, and the container was maintained at room temperature of 25° C. for 24 days, whereupon the mortality of termites in the cup was examined. Further, the test specimen was taken out from the cup, and the deposited substance was removed from the surface of the test specimen. After drying at a temperature of 60° C. for 72 hours, it was weighed to obtain the weight (W2), whereupon the mean weight loss was calculated.

[3] = tested on: Coptotermes formosanus; assay: Test Example 19: gel coated on Japanese red pine wood block, termite mortality with time
Source text: A gel prepared by uniformity mixing 0.2 part by weight of […], 20 parts by weight of sorbitol, 3.5 parts by weight of cross-linked product of a starch/sodium acrylate copolymer, a predetermined amount of a sample compound and a predetermined amount of water, was coated in an amount of 110 g/m^2 on a dried rectangular parallelpiped wood block of Japanese red pine of 20 mm (L)×10 mm (R)×10 mm (T). This test specimen was put into a cylindrical cup made of acrylic resin (i.e. a cup having a hole with a diameter of 10 mm in the bottom and having hard plaster (Dental Stone) set at the bottom in a thickness of 10 mm), and 20 termite workers (Coptotermes formosanus) were released thereon. The cup was placed in a container having wet cotton laid over the bottom, and the container was maintained at room temperature of 25° C., whereby the number of dead termites in the cup was examined as the time passed, and the mortality was calculated.

[4] = tested on: Reticulitermes speratus; assay: Test Example 15: fresh pulp poison bait, termite mortality after 18 days; settings: fresh pulp bait 0.1%
Source text: Fresh pulp (2 cm×2 cm×0.1 cm) was immersed in a methanol solution of a sample compound. Then, it was dried to obtain a fresh pulp poison bait chemical containing 0.1% of the sample compound. This poison bait chemical was placed in a cylindrical cup made of acrylic resin (i.e. a cup having a hole with a diameter of 10 mm formed in the bottom and having hard plaster (Dental Stone) set at the bottom in a thickness of 10 mm), and 20 termite workers (Reticulitermes speratus) were released thereon. The cup was placed in a container having wet cotton laid over the bottom, and the container was maintained at room temperature of 25° C. for 18 days, whereupon the number of dead termites in the cup was examined, and the mortality was calculated.

[5] = tested on: Coptotermes formosanus; assay: Test Example 13: Japanese red pine poison bait, termite mortality and abnormal ratio with time
Source text: A wood block of Japanese red pine (2 cm×2 cm×0.5 cm) subjected to boiling treatment in hot water, was immersed in a methanol solution of a sample compound, and then, it was dried to obtain a Japanese red pine poison bait chemical containing the sample compound in a predetermined concentration. This poison bait chemical was put into a cylindrical cup made of acrylic resin (i.e. a cup having a hole with a diameter of 10 mm formed in the bottom and having hard plaster (Dental Stone) set at the bottom in the thickness of 10 mm), and 15 termite workers (Coptotermes formosanus) were released thereon. The cup was placed in a container having wet cotton laid over the bottom, and the container was maintained at room temperature of 25° C., whereby the number of dead termites and abnormal termites in the cup was examined as the time passed, and the mortality was calculated.

## CC(=NN=C(Cc1ccc(C(F)(F)F)cc1)c1ccc(F)cc1)N(C)C [Compound No. II-2, [4′-fluoro-2-(4-trifluoromethylphenyl)acetophenone]N′-[1-(dimethylamino)ethylidene]hydrazone]
[1]; 1 Day later
  Mortality: 0%
[1]; 8 Days later
  Mortality: 0%
[1]; 48 Days later
  Mortality: 30%
[2]
  Mean weight loss: 2.9%
  Mortality Termite soldiers: 100%
  Mortality Termite workers: 100%
[3]; gel 0.005%, 2 Days later
  Mortality: 0%
[3]; gel 0.005%, 6 Days later
  Mortality: 0%
[3]; gel 0.005%, 12 Days later
  Mortality: 10%
[3]; gel 0.005%, 23 Days later
  Mortality: 30%
[3]; gel 0.005%, 34 Days later
  Mortality: 60%
[3]; gel 0.01%, 2 Days later
  Mortality: 0%
[3]; gel 0.01%, 6 Days later
  Mortality: 0%
[3]; gel 0.01%, 12 Days later
  Mortality: 10%
[3]; gel 0.01%, 23 Days later
  Mortality: 60%
[3]; gel 0.01%, 34 Days later
  Mortality: 100%
[3]; gel 0.05%, 2 Days later
  Mortality: 0%
[3]; gel 0.05%, 6 Days later
  Mortality: 0%
[3]; gel 0.05%, 12 Days later
  Mortality: 100%
[3]; gel 0.05%, 23 Days later
  Mortality: 100%
[3]; gel 0.05%, 34 Days later
  Mortality: 100%
[3]; gel 0.1%, 2 Days later
  Mortality: 0%
[3]; gel 0.1%, 6 Days later
  Mortality: 60%
[3]; gel 0.1%, 12 Days later
  Mortality: 100%
[3]; gel 0.1%, 23 Days later
  Mortality: 100%
[3]; gel 0.1%, 34 Days later
  Mortality: 100%
[4]
  Mortality: 100%
[5]; bait 0.005%, 4 Days later
  Mortality: 0%
[5]; bait 0.005%, 8 Days later
  Mortality: 0%
[5]; bait 0.005%, 10 Days later
  Mortality: 0%
[5]; bait 0.005%, 14 Days later
  Mortality: 30%
[5]; bait 0.005%, 17 Days later
  Mortality: 30 (30) %
  abnormal ratio: 30 (30) %
[5]; bait 0.005%, 23 Days later
  Mortality: 100%
[5]; bait 0.01%, 4 Days later
  Mortality: 0%
[5]; bait 0.01%, 8 Days later
  Mortality: 40%
  abnormal ratio: 60%
[5]; bait 0.01%, 10 Days later
  Mortality: 55%
  abnormal ratio: 45%
[5]; bait 0.01%, 14 Days later
  Mortality: 60%
  abnormal ratio: 40%
[5]; bait 0.01%, 17 Days later
  Mortality: 100%
[5]; bait 0.01%, 23 Days later
  Mortality: 100%
[5]; bait 0.05%, 4 Days later
  Mortality: 47%
[5]; bait 0.05%, 8 Days later
  Mortality: 47%
  abnormal ratio: 14%
[5]; bait 0.05%, 10 Days later
  Mortality: 80%
  abnormal ratio: 7%
[5]; bait 0.05%, 14 Days later
  Mortality: 100%
[5]; bait 0.05%, 17 Days later
  Mortality: 100%
[5]; bait 0.05%, 23 Days later
  Mortality: 100%
[5]; bait 0.1%, 4 Days later
  Mortality: 73%
[5]; bait 0.1%, 8 Days later
  Mortality: 100%
[5]; bait 0.1%, 10 Days later
  Mortality: 100%
[5]; bait 0.1%, 14 Days later
  Mortality: 100%
[5]; bait 0.1%, 17 Days later
  Mortality: 100%
[5]; bait 0.1%, 23 Days later
  Mortality: 100%

From patent US7655677B2, “Composition and method for controlling house insect pest” (priority 2002, dated 2010)
